Earlier results as cited in patent US20180326089A1, “PROTEIN NANOSTRUCTURE BASED DRUG DELIVERY SYSTEM FOR THE DELIVERY OF THERAPEUTIC AGENTS TO THE ANTERIOR SEGMENT OF THE EYE” (Council of Scientific & Industrial Research, priority 2015, published 2018).

water solubility: poorly water soluble
SMILES: CC(=O)N1CCN(c2ccc(OCC3COC(Cn4ccnc4)(c4ccc(Cl)cc4Cl)O3)cc2)CC1 (stereo not shown) [Ketoconazole]
